Reference: patent US20030124159A1, “Enhancing epidermal barrier development in skin” (Unilever Home & Personal Care USA, Division of Conopco, Inc, priority 2001, published 2003)
Values belong to the compound of their own block, whether it stands above or below them.

What was measured:
human LXR = molecular target: T1, human LXR (Homo sapiens, UniProt Q13133); experiment: Reporter gene assay for activation of LXRα in transfected cos-7 cells; assay type: cell-based
T1 construct: expressed in transfected cells; host or cells: cos-7 cells (ECACC No. 87021302)
T1 sequence (Q13133 1-447): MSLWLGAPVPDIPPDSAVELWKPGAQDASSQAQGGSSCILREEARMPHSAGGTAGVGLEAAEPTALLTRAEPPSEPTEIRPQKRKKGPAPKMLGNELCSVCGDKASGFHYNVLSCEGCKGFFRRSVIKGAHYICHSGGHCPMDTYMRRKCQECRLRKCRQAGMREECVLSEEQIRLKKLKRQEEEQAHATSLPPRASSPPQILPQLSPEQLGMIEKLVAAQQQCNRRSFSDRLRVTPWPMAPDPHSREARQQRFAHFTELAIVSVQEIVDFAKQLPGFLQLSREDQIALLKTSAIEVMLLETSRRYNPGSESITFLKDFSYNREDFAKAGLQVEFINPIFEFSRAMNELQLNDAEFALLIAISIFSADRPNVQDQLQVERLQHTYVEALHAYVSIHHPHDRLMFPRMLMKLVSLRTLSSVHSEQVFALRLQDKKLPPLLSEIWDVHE
T1 sequence (P19793 1-462 partner): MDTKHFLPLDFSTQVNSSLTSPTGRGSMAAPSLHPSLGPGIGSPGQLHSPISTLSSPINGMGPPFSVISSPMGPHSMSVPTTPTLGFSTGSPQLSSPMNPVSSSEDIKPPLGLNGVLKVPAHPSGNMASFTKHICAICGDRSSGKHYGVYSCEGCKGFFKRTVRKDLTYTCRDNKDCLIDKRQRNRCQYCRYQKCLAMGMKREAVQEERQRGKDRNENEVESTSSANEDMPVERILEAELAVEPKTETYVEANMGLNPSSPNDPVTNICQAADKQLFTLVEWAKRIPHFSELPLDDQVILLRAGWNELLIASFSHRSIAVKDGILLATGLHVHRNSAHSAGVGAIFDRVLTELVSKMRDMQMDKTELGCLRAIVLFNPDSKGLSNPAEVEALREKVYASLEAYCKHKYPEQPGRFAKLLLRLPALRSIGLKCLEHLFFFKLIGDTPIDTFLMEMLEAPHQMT
Protocol: The activation of LXRα has been determined by a reporter gene assay based on that described by Kliewer et al (Nature 358 771-774 1992). Wherein cos-7 cells (ECACC No. 87021302) were seeded in 24-well plates at a density of 5×10^4 cells/well. Cells were grown overnight at 37° C./5% CO2 in DMEM containing 10% FCS, 2mM L-glutamine, […] penicillin and 100 µg/ml streptomycin.
A commerically available vector-pNFκB-Luc (Clontech) was used as the basic reporter plasmid as it contained the firefly luciferase gene downstream of the thymidine kinase promoter element. The NFκB consensus sequence was exised using restriction enzymes Mlu I and Bgl II and replaced with 3 direct repeats of the DNA response element sequence for the LXR nuclear receptor.
The response element was taken from Willy, P. et al (1995)(from a promoter region of the mouse mammary tumour virus), and repeated three times and encorporated restriction enzyme sites for Mlu I and Bgl II at either end to orientate the fragment during cloning (FIG. 5). This long oligonucleotide was synthesised, and an annealing primer designed to allow production of a double-stranded DNA template by Klenow fill-in.
This dsDNA template along with the vector pNFκB-Luc were then cut with both Mlu I and Bgl II restriction enzymes to allow cloning of the insert into this vector. ligation of the insert and vector occurred, followed by heat-shock transformation into a E. coli strain (JM109) followed by selection of recombinants on LB agar+Ampicillin (100 μg/ml). Mini liquid cultures of each colony generated were established and mini-plasmid preparations done (Qiagen protocols followed), furthered by restriction digests to check the size of the recombinant insert.
The pRSV/hRXRα was prepared via the method of Collingwood T N et al. 1997. J Biol Chem. 272: 13060-5. Transformation was performed as described above, and bulk plasmid preparations were performed from 100 ml overnight cultures. The selectable antibiotic for this vector was 100 μg/ml Ampicilin.
Transfection of cells was performed using Lipofectamine (Gibco Brl) as directed by the manufactures. Transfected cells were incubated for 5 h at 37° C./5% CO2 and serum then added to a final concentration of 2%. Cells were then incubated for a further 24 hours in the presence or absence of ligand. After 24 hours cell lysates were prepared and the level of firefly and renilla luciferase determined using the Dual luciferase assay system (Promega) and a MLX microtitre plate luminometer (Dynex).
Cells were washed with transfection media (DMEM) then transiently transfected with 4 plasmids: a LXR-responsive firefly luciferase reporter gene (pLXRE-luc); mammalian expression plasmids (pcDNA3.1/LXR, and pRSV/hRXRα) containing human LXR and RXRα cDNAs respectively and a control plasmid (pRLTK, Promega) which constitutatively expresses the renilla luciferase gene.
Transfected cells were incubated for 5 h at 37°C./5% CO2 and serum then added to a final concentration of 2%. Cells were then incubated for further 24 hours in the presence or absence of ligand. After 24 hours cell lysates were prepared and the level of firefly and renilla luciferase determined using the Dual luciferase assay system (Promega) and a MLX microtitre plate luminometer (Dynex). The level of firefly luciferase (normalised against the renilla luciferase control) provides a measure of reporter gene activity. This in turn reflects the level of LXR activation
The level of firefly luciferase (normalised against the renilla luciferase control) provides a measure of reporter gene activity which in turn reflects the level of LXRα activation.

filaggrin = experiment: RNA expression analysis of filaggrin in human epidermal cultures (Integriderm array); assay type: cell-based
Protocol: Commercially available human epidermal cultures were obtained from Skin Ethic™. The cultures were incubated in DMEM supplemented with guggul sterone (conctri) or vehicle alone (X % ethanol) for X days. Medium was replaced every day.
RNA was then extracted from cultures using the Qaigen RNEasy™ minikit according to manufacturers' instructions. The RNA was than DNAse treated and quantified by measuring OD at 260 & 280 nm with a spectrophotometer.
The level of gene expression was then determined using the Integridenm array from Research Genetics. RNA expression in guggul sterone treated cultures was compared to that in cultures treated with vehicle alone according to manufacturers' instructions broadly detailed below.
To prehybridise, each membrane was placed in a seperate roller bottle with the DNA spotted side facing inwards 5.0 ml MicroHyb (Research Genetics #HYB125.GF) was added to each bottle as well as the blocking agents;
20 ul mastermix was added to each tube containing RNA and oligo dT, and the reaction incubated at […] 42° C. for 90 mins. Bio-Spin 6 columns (Bio-Rad #732-6002) were then used to remove unincorporated nucleotides according to the manufacturer's instructions.
The cDNA was denatured by heating to 99° C. for 3 mins and chilled on ice for 2 mins. Hybridisation was carried out at 42° C. for 16-20 hrs in a rotating oven.
Membranes were washed 4× with ˜30 ml wash 1 solution (2× SSC, 1% SDS) at 50° C. for 20 mins/wash in rotating oven. This was followed by 2 further washes in ˜30 ml wash 2 solution (0.5× SSC, 1% SDS) at 50° C. for 15 mins/wash in a rotating oven.
Images of the membranes were obtained using a phosphorimager (Molecular Dynamics) using a pixel size of 100 u during the scanning. Images were converted to “TIF” files to allow analysis using Pathways™2.01 software (Research Genetics) and spot intensities compared to indicate changes in RNA expression. Each array contains 3 separate spots of filaggrin DNA and the average of all 3 spot intensities was calculated for each array. […]

Structure (SMILES): CC(C)CC[C@@H](O)[C@@H](C)[C@H]1CC[C@H]2[C@@H]3CC=C4C[C@@H](O)CC[C@]4(C)[C@H]3CC[C@]12C [22R-hydroxycholesterol, reference compound]
Reporter Gene Activity Foloinduction relative to vertical Mean (human LXR; 32 μM, positive control in desmosterol experiment): 4.8 | Reporter Gene Activity Foloinduction relative to vertical Mean (human LXR; 35 μM, positive control in cis-guggal sterone experiment): 6 | Reporter Gene Activity Foloinduction relative to vertical Mean (human LXR; 50 μM, positive control in cis-guggal sterone experiment): 6.59

Reporter Gene Activity Foloinduction relative to vertical Mean (human LXR; 16 μM, cos-7 cells, 24 hours with ligand, firefly luciferase normalised against renilla): 3.9 | Reporter Gene Activity Foloinduction relative to vertical Mean (human LXR; 32 μM, cos-7 cells, 24 hours with ligand, firefly luciferase normalised against renilla): 8 | Reporter Gene Activity Foloinduction relative to vertical Mean (human LXR; 64 μM, cos-7 cells, 24 hours with ligand, firefly luciferase normalised against renilla): 17.3
Structure (SMILES): C/C=C1\C(=O)C[C@H]2[C@@H]3CCC4=CC(=O)CC[C@]4(C)[C@H]3CC[C@]12C [Cis-guggal Sterone]
Spot intensity (filaggrin) (filaggrin; human epidermal cultures, average of 3 filaggrin spots, normalised against average intensity of all spots): 2885 | Changes in the expression relative to vehicle (filaggrin) (filaggrin; human epidermal cultures, relative to vehicle): 1.54 (+/−0.17) | filaggrin mRNA levels (in words) (filaggrin; treatment of epidermal cultures): elevation of filaggrin mRNA levels

Structure (SMILES): CC(C)=CCC[C@@H](C)[C@H]1CC[C@H]2[C@@H]3CC=C4C[C@@H](O)CC[C@]4(C)[C@H]3CC[C@]12C [Desmosterol, cholesta-5,24-dien-3β-ol]
Reporter Gene Activity Foloinduction relative to vertical Mean (human LXR; 26 μM, cos-7 cells, 24 hours with ligand, firefly luciferase normalised against renilla): 9.27
